According to US20050096370A1, “Method for inhibiting tumor angiogenesis and tumor growth” (Bizbiotech Co., Ltd., priority 2003, published 2005):

Tests used:
[1] = test system: HIF-1-regulated genes (VEGF, aldolase A, and enolase 1); assay: semi-quantitative RT-PCR of HIF-1α and HIF-1-regulated gene mRNA in Hep3B cells; assay type: cell-based, human; settings: 16 hours
Method: FIG. 2 is an autoradiograph showing mRNA levels of VEGF, aldolase A, enolase 1, HIF-1α, and β-actin.
Immunoblotting was used to detect HIF-1 protein in cultured cells, as described (Chun et al., Biochem Pharmacol 2001 61:947-954). Cells were centrifuged at 3000 rpm for 5 minutes at VC and then washed twice with ice-cold phosphate buffered saline (PBS). Cells were then resuspended in ten packed cell volumes of alysis buffer consisting of 10 mM Tris, pH 7.4, 130 mM NaCl, 2 mM EDTA, 1% Nonidet P-40, 0.5 mM dithiothreitol, and 0.5 mM phenylmethylsulfonyl fluoride. […] To quantify mRNAs for HIF-1α and HIF-1-regulated genes, we performed a highly sensitive, semi-quantitative reverse transcription-polymerase chain reaction (RT PCR), as described previously (Chun et al., J Cell Sci 2001 114:4051-4061). […] P-actin mRNA was measured as a PCR control. […] To assess whether the VEGF mRNA levels affected levels of VEGF protein secreted into the medium, we measured VEGF protein levels in Hep3B cell-conditioned medium. […] VEGF levels in the conditioned media were quantified by using the Quantikine human VEGF Immunoassay kit (R&D Systems, Minneapolis, Minn.) according to the manufacturer's recommended protocol. The VEGF concentrations were quantified by comparison with a series of VEGF standard samples included in the assay kit. […]

[2] = test system: human cancer xenografts (Hep3B, NCI-H87, SiHa, SK-N-MC, Caki-1); assay: counts of HIF-1α-positive cells and CD31-positive vessels in xenograft tumor sections; assay type: in vivo, nude mice; settings: regardless of cell origin, treated 2 weeks, P<0.01
Method: FIG. 10 is a histogram showing HIF-1α expression detected by immunohistochemistry in human cancer xenografts derived from Hep3B hepatoma, NCI-H87 gastric carcinoma, SiHa cervical carcinoma, SK-N-MC neuroblastoma, or Caki-1 renal carcinoma cells. Male nude mice were injected subcutaneously in the flank with 5×10^6 viable tumor cells. […] After the last treatment, the mice were euthanized, the tumors removed, fixed with formalin, embedded in paraffin and processed for hinmunohistochemistry to detect HIF-1α-positive cells. […] Each bar represents the mean with lower or upper 95% confidence interval. Differences between treatment groups were compared using a Mann-Whitney U test. […]
FIG. 11 is a histogram showing vascular density detected by immunohistochemistry in human cancer xenografts derived from Hep3B hepatoma, NCI-H87 gastric carcinoma, SiHa cervical carcinoma, SK-N-MC neuroblastoma, or Caki-1 renal carcinoma cells. […]
We further quantified the numbers of HIF-1α-positive cells and CD31-positive vessels in tumor sections from vehicle- and YC-1-treated mice. […] The expression of HIF-1α and the vessel density were measured by counting the numbers of immunopositive cells and vessel profiles (identified by CD31 staining) per mm^2 under microscopic images. We analyzed ten or more different lesions per xenograft tumor.

OCc1ccc(-c2nn(Cc3ccccc3)c3ccccc23)o1 [YC-1, 3-(5′-hydroxymethyl-2′-furyl)-1-benzylindazole]
HIF-1α mRNA level [1]: relatively unchanged
expression of HIF-1-regulated genes (VEGF, aldolase A, and enolase 1) mRNA ([1]; hypoxic): dose dependently decreased
blood vessel formation (CD31 vessel profiles per mm^2) [2]: statistically significantly inhibited
expression of HIF-1α protein (immunopositive cells per mm^2) [2]: statistically significantly inhibited
